{"source": "patent US10004751B2", "about": "“Compositions and methods for treating Dengue virus infection” (The J. David Gladstone Institutes, priority 2014, dated 2018)", "system": "DENV", "experiment": "DENV replication in Huh7 cells treated with ARFGAP1 inhibitor", "format": "cell-based, Dengue virus", "settings": "DENV MOI of 0.5, increasing concentrations, 24 hours post-infection", "description": "Human hepatoma Huh7 cells were infected with DENV (MOI of 0.5) and treated with increasing concentrations of QS 11. Viral RNA synthesis, DENV capsid protein levels, and infectious virion production were measured at 24 hours post-infection.", "data": [{"compound": "OC[C@H](Cc1ccccc1)Nc1nc(Oc2ccc3c(c2)CCC3)nc2c1ncn2Cc1ccc(-c2ccccc2)cc1", "note": "[QS 11]", "values": [{"measurement": "Viral RNA synthesis", "setting": "FIG. 6A", "value": "reduced viral RNA synthesis"}, {"measurement": "DENV capsid protein levels", "setting": "FIG. 6B", "value": "reduced"}, {"measurement": "Infectious virion production", "setting": "FIG. 6C", "value": "reduced"}]}]}
